One assay has as its system rat. Put plainly: Rat sleep/EEG studies. As to conditions: central administration at the onset of the normal sleep period; at the expense of paradoxical sleep and slow wave sleep 2. In kind it is in vivo. The text has this:
Therefore antagonists of its receptors may be useful in the treatment of sleep disorders including insomnia.

A further assay concerns freely-feeding rats. As to conditions: central administration, 4 hour time period; cited from earlier work.

As to “orexin-A: peptide ligand for the orexin-1 receptor, an agonist of the orexin receptors; sequence given in b81 (QPLPDCCRQKTCSCRLYELLHGAGNHAAGILTL; not fully specified; Orexin-A; UniProt O43612 34-66, looked up)”, the arousal result with rat is “dose-related increase in arousal”. Moreover, in the assay on freely-feeding rats, the “increase in food intake over control rats receiving vehicle” value was “approximately four-fold”.

(Values after US7078565B2, “Benzamide derivatives as antagonists of orexin receptors” (SmithKline Beecham plc, priority 2001, dated 2006).)
